The text below walks through data of publication PMC5526551, “New hydrazonoindolin-2-ones: Synthesis, exploration of the possible anti-proliferative mechanism of action and encapsulation into PLGA microspheres” (PLoS ONE, 2017).

In series [1] the test system is HT-29, ZR-75 and A-549 cell lines. In words: Average anti-proliferative activity over the three cancer cell lines. The class given is cell-based, human. The conditions noted are these: Homo sapiens, average of HT-29, ZR-75, A-549; for inhibition at 30 µM: read-out: Average Growth Inhibition %. The protocol: Twenty compounds, i.e. 4a-o and 7a-e, were analyzed for cancer cell growth inhibitory activity. These studies were carried out using cells derived from human lung, colon and breast tumors (A549, HT-29 and ZR-75 cells, respectively). This initial assessment of activity tested each compound in quadruplicate at a single concentration of 30 μM, if solubility permitted.
Therefore, they were subjected to quantitative inhibitory concentration 50% (IC50) determination for their cell growth inhibitory activity towards the A549, HT-29 and ZR-75 cancer cell lines.
A549, HT-29, ZR-75 were obtained from the American Type Culture Collection (ATCC). Cells were harvested from 90-95% confluent 10 cm dishes, and diluted in growth media (RPMI-1640 supplemented with 5% fetal bovine serum). An appropriate concentration of cells were prepared to add 1,250 cells in a volume of 25 µL per well in tissue culture treated Griener 384-well microplates, then incubated overnight at 37°C. Compound 7e was diluted to a concentration of 30 µM in DMSO. Concentrated dosing solutions of twice the final concentration were prepared by dilution of the DMSO stocks 1:500 in growth media. Two-fold serial dilutions were then prepared in medium containing 0.2% DMSO to maintain a constant concentration of vehicle throughout the concentration range of the compound. Each of these was added in an equal volume (25 µL) to four wells on each cell assay plate, along with the vehicle control. The highest concentration for serial dilutions of the positive control (sunitinib) was prepared exactly as the experimental compound 7e. Cells were incubated with the compounds for a further 72 h.
The potency of compounds was determined using the non-linear dose response algorithm (four-parameter logistic fit) with GraphPad Prism 5 software.

The test system of another series is IEC-6. The series is described as follows: Selectivity: growth inhibition in non-tumorigenic cell line. Format: cell-based. The settings on record: Rattus norvegicus, 72 h, maximum 25 μM, read-out: IC50 Intestine IEC-6. As to the method:
This assessment of the growth inhibitory activity of the compounds was tested in quadruplicate at a maximum concentration of 25 μM, followed by 10 serially diluted concentrations.
A549, IEC-6, MCF-10A and 3t3 cells were harvested from 90-95% confluent cultures in 10 cm dishes, and diluted in growth media recommended by the suppliers as follows: A549 cells were cultured in RPMI-1640 medium supplemented with 5% fetal bovine serum (FBS). IEC-6 cells were obtained from ATCC and cultured in Dulbecco’s modified Eagle’s medium (DMEM) supplemented with 10% FBS and 0.1 unit/mL recombinant insulin. Swiss 3t3 cells were obtained from ATCC and cultured in DMEM supplemented with 10% FBS. […]
At the end of the treatment period, assay plates were allowed to cool to RT for 10 min prior to addition of 25 µL per well Promega CellTiterGlo reagent, followed by an additional 10 min incubation at RT. The resulting luminescence was quantitated using a Molecular Devices Spectramax Paradigm.Percent growth inhibition was calculated using equation (1). The potency of compounds was determined using the non-linear dose response algorithm (four-parameter logistic fit) with GraphPad Prism 5 software.

Series [2] in a line: In vitro 7e release (vial method, phosphate buffer pH 7.4). The class given is physicochemical. The conditions noted are these: after 5 days, pH 7.4, 37°C. As to the method: In vitro7e-release: Studies on the in vitro release of 7e from microspheres were carried out using the vial method as reported by Dubey et al.. Compound 7e-PLGA-microspheres containing 5 mg equivalent of compound 7e were suspended in a vial containing phosphate buffer (10 mL, pH 7.4) with 0.3% Tween 80 to improve the solubility of 7e. The vial was incubated in a water bath at 37 ± 0.5°C and vibrated horizontally at speed of 100 rpm. In vitro 7e release was assessed by intermittently sampling the vial (2 mL) at predetermined time intervals (1, 2, 3, 4, 5, 6, 10, 12, 15, 18, 20 and 21 days), then replacing the volume with 2 mL of fresh phosphate buffer.
In vitro 7e release was assessed in phosphate buffer (pH 7.4) containing a surfactant to simulate the physiological milieu and maintain sink conditions. Samples were incubated at 37°C, and the amount of 7e was determined using a UV spectrophotometer. […] On the other hand, the release of compound 7e from the raw powder was faster than its release from the microspheres, as 65% of 7e was released after 5 days. This uncontrolled burst release of compound 7e from raw powder could result in too high local concentration which could lead to severe local tissue injure and hamper appropriate delivery to the target.

One may read the inhibition as the share of the control response that was lost under treatment. As usually defined, the IC50 is the concentration at which inhibition is half-maximal. As to `O=C1Nc2ccc(Br)cc2C1=NN=C1C(=O)N(Cc2ccccc2)c2ccccc21` [Compound 7e, 1-Benzyl-3-((5-bromo-2-oxoindolin-3-ylidene)hydrazono)indolin-2-one], the inhibition at 30 µM in series [1] is 96.3%. Moreover, the IC50 in series [1] is 2.37 µM; with IEC-6, 3.72 µM. The “Cumulative in vitro release of 7e” value in series [2] came out at 65%.

For `CCN(CC)CCNC(=O)c1c(C)[nH]c(/C=C2\C(=O)Nc3ccc(F)cc32)c1C` [Sunitinib, sunitinib, reference compound], in series [1], the inhibition at 30 µM stood at 78.7% and the IC50 stood at 8.11 µM. The IC50 with IEC-6 turned out to be 4.56 µM.
